Measured values published in PubChem BioAssay (NCI).
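Briefly, cells in 96-well plates were exposed to five compound concentrations for 48 h, and endpoints were estimated by linear interpolation. GI50 = concentration required for 50% inhibition of growth. The concentration for full growth arrest is given as TGI.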

Legend:
Assay in all cases: NCI tumour cell line growth inhibition, 48 h
HL-60(TB) leukemia = test system: HL-60(TB) leukemia
NCI-H522 lung = test system: NCI-H522 lung
COLO 205 colon = test system: COLO 205 colon
786-0 renal = test system: 786-0 renal
UO-31 renal = test system: UO-31 renal
SNB-19 CNS = test system: SNB-19 CNS
K-562 leukemia = test system: K-562 leukemia
SF-295 CNS = test system: SF-295 CNS
HOP-92 NSCLC = test system: HOP-92 NSCLC
CAKI-1 renal = test system: CAKI-1 renal
DU-145 prostate = test system: DU-145 prostate
BT-549 breast = test system: BT-549 breast
TK-10 renal = test system: TK-10 renal
SK-MEL-5 melanoma = test system: SK-MEL-5 melanoma
HCC-2998 colon = test system: HCC-2998 colon
MOLT-4 leukemia = test system: MOLT-4 leukemia
IGROV1 ovarian = test system: IGROV1 ovarian
SF-539 CNS = test system: SF-539 CNS
SK-OV-3 ovarian = test system: SK-OV-3 ovarian
RPMI-8226 leukemia = test system: RPMI-8226 leukemia
MDA-MB-231 breast = test system: MDA-MB-231 breast
OVCAR-8 ovarian = test system: OVCAR-8 ovarian
LOX IMVI melanoma = test system: LOX IMVI melanoma
CCRF-CEM leukemia = test system: CCRF-CEM leukemia
HT29 colon = test system: HT29 colon
OVCAR-4 ovarian = test system: OVCAR-4 ovarian
A498 renal = test system: A498 renal
OVCAR-3 ovarian = test system: OVCAR-3 ovarian
UACC-62 melanoma = test system: UACC-62 melanoma
SN12C renal = test system: SN12C renal
UACC-257 melanoma = test system: UACC-257 melanoma
KM12 colon = test system: KM12 colon
ACHN renal = test system: ACHN renal
HCT-15 colon = test system: HCT-15 colon
MCF7 breast = test system: MCF7 breast
NCI-H460 lung = test system: NCI-H460 lung
SK-MEL-28 melanoma = test system: SK-MEL-28 melanoma
SR leukemia = test system: SR leukemia
U251 CNS = test system: U251 CNS
NCI-H23 lung = test system: NCI-H23 lung
MALME-3M melanoma = test system: MALME-3M melanoma
M14 melanoma = test system: M14 melanoma
HS 578T breast = test system: HS 578T breast
MDA-MB-435 = test system: MDA-MB-435
SF-268 CNS = test system: SF-268 CNS
NCI-H226 lung = test system: NCI-H226 lung
OVCAR-5 ovarian = test system: OVCAR-5 ovarian
EKVX NSCLC = test system: EKVX NSCLC
PC-3 prostate = test system: PC-3 prostate
HCT-116 colon = test system: HCT-116 colon
SW-620 colon = test system: SW-620 colon
SNB-75 CNS = test system: SNB-75 CNS
T-47D breast = test system: T-47D breast
A549 NSCLC = test system: A549 NSCLC
HOP-62 NSCLC = test system: HOP-62 NSCLC

## COc1cccc(C(N)=Nc2ccc(OCCCCCCCCn3cncn3)cc2)c1
HL-60(TB) leukemia
  GI50: 306 nM
  TGI: 1080 nM
NCI-H522 lung
  GI50: 274 nM
  TGI: 1290 nM
COLO 205 colon
  GI50: 315 nM
  TGI: 1090 nM
786-0 renal
  GI50: 812 nM
  TGI: 26900 nM
UO-31 renal
  GI50: 544 nM
  TGI: 19900 nM
SNB-19 CNS
  GI50: 576 nM
  TGI: > 67700 nM
K-562 leukemia
  GI50: 230 nM
  TGI: > 100000 nM
SF-295 CNS
  GI50: 320 nM
  TGI: 11000 nM
HOP-92 NSCLC
  GI50: 1630 nM
  TGI: 30200 nM
CAKI-1 renal
  GI50: 473 nM
  TGI: 45400 nM
DU-145 prostate
  GI50: 417 nM
  TGI: 31500 nM
BT-549 breast
  GI50: 975 nM
  TGI: 22300 nM
TK-10 renal
  GI50: 799 nM
  TGI: > 100000 nM
SK-MEL-5 melanoma
  GI50: 286 nM
  TGI: 1090 nM
HCC-2998 colon
  GI50: 380 nM
  TGI: 3520 nM
MOLT-4 leukemia
  GI50: 596 nM
  TGI: > 100000 nM
IGROV1 ovarian
  GI50: 530 nM
  TGI: 21000 nM
SF-539 CNS
  GI50: 235 nM
  TGI: 585 nM
SK-OV-3 ovarian
  GI50: 540 nM
  TGI: 49200 nM
RPMI-8226 leukemia
  GI50: 293 nM
  TGI: 4870 nM
MDA-MB-231 breast
  GI50: 385 nM
  TGI: 4890 nM
OVCAR-8 ovarian
  GI50: 342 nM
  TGI: 2100 nM
LOX IMVI melanoma
  GI50: 522 nM
  TGI: 11800 nM
CCRF-CEM leukemia
  GI50: 292 nM
  TGI: 10400 nM
HT29 colon
  GI50: 319 nM
  TGI: 1420 nM
OVCAR-4 ovarian
  GI50: 3180 nM
  TGI: > 100000 nM
A498 renal
  GI50: 14900 nM
  TGI: 59500 nM
OVCAR-3 ovarian
  GI50: 369 nM
  TGI: 25400 nM
UACC-62 melanoma
  GI50: 435 nM
  TGI: 17200 nM
SN12C renal
  GI50: 485 nM
  TGI: 14300 nM
UACC-257 melanoma
  GI50: 2020 nM
  TGI: 27800 nM
KM12 colon
  GI50: 425 nM
  TGI: > 65500 nM
ACHN renal
  GI50: 650 nM
  TGI: 39400 nM
HCT-15 colon
  GI50: 330 nM
  TGI: 12400 nM
MCF7 breast
  GI50: 266 nM
  TGI: 15000 nM
NCI-H460 lung
  GI50: 356 nM
  TGI: > 33500 nM
SK-MEL-28 melanoma
  GI50: 693 nM
  TGI: 24100 nM
SR leukemia
  GI50: 319 nM
  TGI: > 56900 nM
U251 CNS
  GI50: 333 nM
  TGI: 4570 nM
NCI-H23 lung
  GI50: 385 nM
  TGI: 15500 nM
MALME-3M melanoma
  GI50: 310 nM
  TGI: 17400 nM
M14 melanoma
  GI50: 324 nM
  TGI: 18900 nM
HS 578T breast
  GI50: 374 nM
  TGI: 38900 nM
MDA-MB-435
  GI50: 130 nM
  TGI: 378 nM
SF-268 CNS
  GI50: 1990 nM
  TGI: 42800 nM
NCI-H226 lung
  GI50: 295 nM
  TGI: 2050 nM
OVCAR-5 ovarian
  GI50: 493 nM
  TGI: > 45600 nM
EKVX NSCLC
  GI50: 429 nM
  TGI: > 75200 nM
PC-3 prostate
  GI50: 424 nM
  TGI: > 50300 nM
HCT-116 colon
  GI50: 417 nM
  TGI: 17100 nM
SW-620 colon
  GI50: 387 nM
  TGI: > 100000 nM
SNB-75 CNS
  GI50: 262 nM
  TGI: > 45400 nM
T-47D breast
  GI50: 426 nM
  TGI: > 72400 nM
A549 NSCLC
  GI50: 581 nM
  TGI: > 100000 nM
HOP-62 NSCLC
  GI50: 614 nM
  TGI: 18500 nM
